Results published in patent publication US12421216B2, “Voruciclib polymorphs and methods of making and using thereof” (MEI PHARMA, INC., priority 2019, dated 2025).
“Also recorded” adds a separate entry of the source. Structures can show the parent of a compound that is named as a salt. Where two headings read alike, the source gives them in different places. One block for each compound: values may come before it.

Assays:
[1] = acid counterion; cited from earlier work
[2] = Physical stability of solid forms upon drying under vacuum, HT-XRPD; assay type: physicochemical; conditions: for Solid forms Vacuum: form after drying under deep vacuum (5 mbar, 18 h), HT-XRPD, label = ambient-dried form
Protocol: (§1) Amorphous voruciclib oxalate salt, generated by freeze-drying, was used to start the thermocycling experiments. Suspensions were prepared in the selected solvent systems at RT. Subsequently, the mixtures were subjected to a temperature profile. After the temperature profile, the solids were separated from the solutions by centrifugation and were dried at ambient conditions and under deep vacuum before being harvested and analyzed by HT-XRPD. The liquid phases were also dried under deep vacuum before being harvested and analyzed by HT-XRPD. All solids were exposed to AAC (40° C./75% RH, 2 days).
(§2) After the temperature profile, the solids were separated from the liquids by centrifugation and the solid phase was dried at ambient conditions and under deep vacuum (5 mbar) before being harvested and analyzed by HT-XRPD. The liquid phases were dried under deep vacuum (5 mbar) and the recovered solids were analyzed by HT-XRPD. All solids were then exposed to accelerated aging conditions (40° C./75% RH, 2 days) followed by HT-XRPD re-analysis.
as §1, with “voruciclib phosphate” for “voruciclib oxalate”, “profile. Upon completion of” for “profile. After”, “dried under” for “dried at”
as §2, with “dried under” for “dried at”, “(5 mbar, 18 h)” for “(5 mbar)”
Amorphous voruciclib malonate salt, generated by freeze-drying, was used to start the thermocycling experiments. Suspensions were prepared in the selected solvent systems at RT and were subjected to three thermocycles between 50 and 5° C., followed by aging at 25° C. for 3 days. Upon completion of the aging time, the solids were separated from the liquids by centrifugation and they were dried at ambient conditions and under deep vacuum (5 mbar) before being harvested and analyzed by HT-XRPD.
After the temperature profile the solids were separated from the solution by centrifugation and they were dried at ambient conditions and under deep vacuum before being harvested and analyzed by HT-XRPD.

[3] = Physical stability upon exposure to accelerated aging conditions (AAC, 40° C./75% RH), re-analysis by HT-XRPD; assay type: physicochemical
[4] = Thermodynamic solubility of voruciclib HCl by the shake-flask method (HPLC); assay type: physicochemical; conditions: RT; for Solubility classification: USP29
[5] = Solubility of salts in water and in 0.2 M phosphate buffer pH 6 at 37° C. after 4 hours (HPLC-DAD); assay type: physicochemical; conditions: 37° C., 4 hours, listed as Voruciclib HCl salt
Protocol: Two sets of solubility experiments were performed. […] In the second set of solubility experiments about 5 mg of the salt was weighed in a standard 1.8 mL HPLC vial. Subsequently, aliquots of 200 μL of aqueous medium were added up to a maximum of 1 mL, while making observations regarding the dissolution behavior of the salts. The vials were left to equilibrate at 37° C. with continuous stirring (see Table 25 for details). After 4 hours the solids were separated from the liquid by centrifugation and the liquid phase was further filtrated through a […] PTFE filter to remove any particulate matter. The concentration of solute was determined by HPLC-DAD analysis. A calibration curve was made from two independent stock solutions of voruciclib prepared in acetonitrile/water. The pH was recorded at the end of the equilibration time.

SMILES: O=C(O)C[C@H](O)C(=O)O [(−)-L-Malic]
pka1 [1]: 3.5
pka2 [1]: 5.1

SMILES: O=C(O)CCCC(=O)O [Glutaric]
pka1 [1]: 4.3
pka2 [1]: 5.3

SMILES: O=C(O[C@@H](C(=O)O)[C@@H](OC(=O)c1ccccc1)C(=O)O)c1ccccc1 [Dibenzoyl-L-tartaric]
pka1 [1]: 1.9

SMILES: O=S(=O)(O)c1cccc2c(S(=O)(=O)O)cccc12 [Naphthalene-1,5-disulfonic]
pka1 [1]: −3.4
pka2 [1]: −2.6

Physical stability upon drying under deep/high vacuum ([2]; oxalate, phosphate, malonate forms, 5 mbar, 18 h): remained physically stable
Solid forms Vacuum ([2]; phosphate salt thermocycling solids): Pho7
SMILES: CN1CCC(c2c(O)cc(O)c3c(=O)cc(-c4ccc(C(F)(F)F)cc4Cl)oc23)C1CO.O=P(O)(O)O (stereo not shown) [Pho7]
Physical stability upon exposure to AAC ([3]; 40° C./75% RH, 2 days, HT-XRPD before and after): additional diffraction peaks were observed; also recorded: unstable upon exposure to AAC

Solid forms Vacuum ([2]; oxalate salt thermocycling solids): Oxa2 + peaks
Solid forms Ambient AAC ([3]; oxalate salt thermocycling, ambient-dried solids after AAC (40° C./75% RH, 2 days), HT-XRPD): Oxa2 + peaks
Solid forms Vacuum AAC ([3]; oxalate salt thermocycling, vacuum-dried solids after AAC (40° C./75% RH, 2 days), HT-XRPD): Oxa2 + peaks
SMILES: CN1CCC(c2c(O)cc(O)c3c(=O)cc(-c4ccc(C(F)(F)F)cc4Cl)oc23)C1CO.O=C(O)C(=O)O (stereo not shown) [Oxa2 + peaks]

solubility at 24 h ([4]; 1,2-dimethoxyethane, organic solvent or mixture, thermodynamic from solid, 1,2-Dimethoxyethane, 24 h, amorphous API, HPLC, read-out: Solubility): 1600 µg/mL
solubility at 24 h ([4]; 1,4-dioxane, organic solvent or mixture, thermodynamic from solid, 1,4-Dioxane, 24 h, amorphous API, HPLC, read-out: Solubility): 400 µg/mL
solubility ([4]; 1-Propanol, 24 h, amorphous API, HPLC): 34.5 mg/mL
solubility at 24 h ([4]; 1-propanol, organic solvent or mixture, thermodynamic from solid, 1-Propanol, 24 h, amorphous API, HPLC, read-out: Solubility): 34000 µg/mL
solubility ([4]; 2-Butanol, 24 h, amorphous API, HPLC): 10.2 mg/mL
solubility ([4]; 2-Propanol, 24 h, amorphous API, HPLC): 18.8 mg/mL
solubility at 24 h ([4]; 2-butanol, organic solvent or mixture, thermodynamic from solid, 2-Butanol, 24 h, amorphous API, HPLC, read-out: Solubility): 10000 µg/mL
solubility at 24 h ([4]; 2-methyltetrahydrofuran, organic solvent or mixture, thermodynamic from solid, 2-Methyltetrahydrofuran, 24 h, amorphous API, HPLC, read-out: Solubility): 1600 µg/mL
solubility at 24 h ([4]; 2-propanol, organic solvent or mixture, thermodynamic from solid, 2-Propanol, 24 h, amorphous API, HPLC, read-out: Solubility): 19000 µg/mL
solubility ([4]; Dimethyl sulfoxide, amorphous API, no suspension obtained, concentration of the solution after first aliquot): >400 mg/mL
solubility ([4]; Ethanol, 24 h, amorphous API, HPLC): 62.0 mg/mL
solubility ([4]; Methanol, 24 h, amorphous API, HPLC): 229.5 mg/mL
solubility ([4]; N,N-Dimethylacetamide, amorphous API, no suspension obtained, concentration of the solution after first aliquot): >400 mg/mL
solubility ([4]; N,N-Dimethylformamide, amorphous API, no suspension obtained, concentration of the solution after first aliquot): >400 mg/mL
solubility ([4]; N,N-dimethylacetamide, organic solvent or mixture, thermodynamic from solid, N,N-Dimethylacetamide, amorphous API, no suspension obtained, concentration of the solution after first aliquot, read-out: Solubility): > 400 mg/mL
solubility ([4]; N,N-dimethylformamide, organic solvent or mixture, thermodynamic from solid, N,N-Dimethylformamide, amorphous API, no suspension obtained, concentration of the solution after first aliquot, read-out: Solubility): > 400 mg/mL
Solubility classification ([4]; 2-Propanol, 2-Butanol): Sparingly soluble
Solubility classification ([4]; Acetonitrile, Ethyl acetate, Methyl isobutyl ketone, Dichloromethane, Isopropyl acetate, 1,4-Dioxane, Diethyl ether, tert-Butyl methyl ether, Toluene): Very slightly soluble
Solubility classification ([4]; Anisole, p-Xylene, Diisopropyl ether, Cumene, Cyclohexane, n-Hexane, n-Heptane, Hexanes): Practically insoluble
Solubility classification ([4]; Ethanol, 1-Propanol): Soluble
Solubility classification ([4]; N,N-Dimethylacetamide, Dimethyl sulfoxide, N,N-Dimethylformamide, Methanol): Freely soluble
Solubility classification ([4]; Tetrahydrofuran, Acetone, Chloroform, 1,2-Dimethoxyethane, 2-Methyltetrahydrofuran, Ethyl formate, Methyl ethyl ketone): Slightly soluble
solubility at 24 h ([4]; acetone, organic solvent or mixture, thermodynamic from solid, Acetone, 24 h, amorphous API, HPLC, read-out: Solubility): 3500 µg/mL
solubility at 24 h ([4]; acetonitrile, organic solvent or mixture, thermodynamic from solid, Acetonitrile, 24 h, amorphous API, HPLC, read-out: Solubility): 900 µg/mL
solubility at 24 h ([4]; anisole, organic solvent or mixture, thermodynamic from solid, Anisole, 24 h, amorphous API, HPLC, read-out: Solubility): < 100 µg/mL
solubility at 24 h ([4]; chloroform, organic solvent or mixture, thermodynamic from solid, Chloroform, 24 h, amorphous API, HPLC, read-out: Solubility): 3100 µg/mL
solubility at 24 h ([4]; cumene, organic solvent or mixture, thermodynamic from solid, Cumene, 24 h, amorphous API, HPLC, read-out: Solubility): < 100 µg/mL
solubility at 24 h ([4]; cyclohexane, organic solvent or mixture, thermodynamic from solid, Cyclohexane, 24 h, amorphous API, HPLC, read-out: Solubility): < 100 µg/mL
solubility at 24 h ([4]; dichloromethane, organic solvent or mixture, thermodynamic from solid, Dichloromethane, 24 h, amorphous API, HPLC, read-out: Solubility): 500 µg/mL
solubility at 24 h ([4]; diethyl ether, organic solvent or mixture, thermodynamic from solid, Diethyl ether, 24 h, amorphous API, HPLC, read-out: Solubility): 200 µg/mL
solubility at 24 h ([4]; diisopropyl ether, organic solvent or mixture, thermodynamic from solid, Diisopropyl ether, 24 h, amorphous API, HPLC, read-out: Solubility): < 100 µg/mL
solubility ([4]; dimethyl sulfoxide, organic solvent or mixture, thermodynamic from solid, Dimethyl sulfoxide, amorphous API, no suspension obtained, concentration of the solution after first aliquot, read-out: Solubility): > 400 mg/mL
solubility at 24 h ([4]; ethanol, organic solvent or mixture, thermodynamic from solid, Ethanol, 24 h, amorphous API, HPLC, read-out: Solubility): 62000 µg/mL
solubility at 24 h ([4]; ethyl acetate, organic solvent or mixture, thermodynamic from solid, Ethyl acetate, 24 h, amorphous API, HPLC, read-out: Solubility): 800 µg/mL
solubility at 24 h ([4]; ethyl formate, organic solvent or mixture, thermodynamic from solid, Ethyl formate, 24 h, amorphous API, HPLC, read-out: Solubility): 1600 µg/mL
solubility at 24 h ([4]; hexanes, organic solvent or mixture, thermodynamic from solid, Hexanes, 24 h, amorphous API, HPLC, read-out: Solubility): < 100 µg/mL
solubility at 24 h ([4]; isopropyl acetate, organic solvent or mixture, thermodynamic from solid, Isopropyl acetate, 24 h, amorphous API, HPLC, read-out: Solubility): 500 µg/mL
solubility at 24 h ([4]; methanol, organic solvent or mixture, thermodynamic from solid, Methanol, 24 h, amorphous API, HPLC, read-out: Solubility): 230000 µg/mL
solubility at 24 h ([4]; methyl ethyl ketone, organic solvent or mixture, thermodynamic from solid, Methyl ethyl ketone, 24 h, amorphous API, HPLC, read-out: Solubility): 1100 µg/mL
solubility at 24 h ([4]; methyl isobutyl ketone, organic solvent or mixture, thermodynamic from solid, Methyl isobutyl ketone, 24 h, amorphous API, HPLC, read-out: Solubility): 700 µg/mL
solubility at 24 h ([4]; n-heptane, organic solvent or mixture, thermodynamic from solid, n-Heptane, 24 h, amorphous API, HPLC, read-out: Solubility): < 100 µg/mL
solubility at 24 h ([4]; n-hexane, organic solvent or mixture, thermodynamic from solid, n-Hexane, 24 h, amorphous API, HPLC, read-out: Solubility): < 100 µg/mL
solubility at 24 h ([4]; p-xylene, organic solvent or mixture, thermodynamic from solid, p-Xylene, 24 h, amorphous API, HPLC, read-out: Solubility): < 100 µg/mL
solubility at 24 h ([4]; solvents other than DMA, DMF, DMSO and alcohols, organic solvent or mixture, thermodynamic from solid, solvents other than DMA, DMF, DMSO and alcohols, read-out: Solubility in all the other solvents): < 10000 µg/mL
solubility at 24 h ([4]; tert-butyl methyl ether, organic solvent or mixture, thermodynamic from solid, tert-Butyl methyl ether, 24 h, amorphous API, HPLC, read-out: Solubility): 100 µg/mL
solubility at 24 h ([4]; tetrahydrofuran, organic solvent or mixture, thermodynamic from solid, Tetrahydrofuran, 24 h, amorphous API, HPLC, read-out: Solubility): 9600 µg/mL
solubility at 24 h ([4]; toluene, organic solvent or mixture, thermodynamic from solid, Toluene, 24 h, amorphous API, HPLC, read-out: Solubility): 100 µg/mL
Solubility pH 6 ([5]; 0.2M phosphate buffer (pH 6)): 0.01 mg/mL
Solubility water ([5]; water): Gel
SMILES: CN1CC[C@@H](c2c(O)cc(O)c3c(=O)cc(-c4ccc(C(F)(F)F)cc4Cl)oc23)[C@@H]1CO [voruciclib HCl]

SMILES: O=C(O)[C@H](O)[C@@H](O)[C@H](O)[C@H](O)CO [D-Gluconic]
pka1 [1]: 3.8

SMILES: O=S(=O)(O)CCS(=O)(=O)O [Ethane-1,2-disulfonic]
pka1 [1]: −2.1
pka2 [1]: −1.5

SMILES: CCS(=O)(=O)O [Ethanesulfonic]
pka1 [1]: 2.1

SMILES: O=S(=O)(O)c1ccc2ccccc2c1 [Naphthalene-2-sulfonic]
pka1 [1]: 0.2
